Measurements reported in ChEMBL document CHEMBL4507268 (2021).

What was measured:
Settings in all cases: Compound concentration 1.0 uM
[1] = target: T1, Cyclin-dependent kinase-like 2 (Homo sapiens) (UniProt Q92772)
T1 sequence (whole entry): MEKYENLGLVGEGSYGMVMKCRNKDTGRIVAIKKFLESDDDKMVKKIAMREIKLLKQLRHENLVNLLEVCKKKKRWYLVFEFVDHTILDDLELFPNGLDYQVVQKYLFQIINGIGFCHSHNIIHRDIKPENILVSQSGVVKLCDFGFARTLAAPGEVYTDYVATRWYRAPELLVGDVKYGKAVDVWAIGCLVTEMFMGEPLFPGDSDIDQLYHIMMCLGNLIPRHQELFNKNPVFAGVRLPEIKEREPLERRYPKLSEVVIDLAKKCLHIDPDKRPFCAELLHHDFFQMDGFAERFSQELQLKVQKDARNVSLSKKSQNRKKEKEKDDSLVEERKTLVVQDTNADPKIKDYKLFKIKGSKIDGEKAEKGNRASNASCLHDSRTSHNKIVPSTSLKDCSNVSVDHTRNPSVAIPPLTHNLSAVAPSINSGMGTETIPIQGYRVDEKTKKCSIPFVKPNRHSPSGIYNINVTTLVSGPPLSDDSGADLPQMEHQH

[2] = target: Rho-associated protein kinase 2 (Homo sapiens) (UniProt O75116)
Rho-associated protein kinase 2 (Homo sapiens), sequence (O75116 whole entry, looked up): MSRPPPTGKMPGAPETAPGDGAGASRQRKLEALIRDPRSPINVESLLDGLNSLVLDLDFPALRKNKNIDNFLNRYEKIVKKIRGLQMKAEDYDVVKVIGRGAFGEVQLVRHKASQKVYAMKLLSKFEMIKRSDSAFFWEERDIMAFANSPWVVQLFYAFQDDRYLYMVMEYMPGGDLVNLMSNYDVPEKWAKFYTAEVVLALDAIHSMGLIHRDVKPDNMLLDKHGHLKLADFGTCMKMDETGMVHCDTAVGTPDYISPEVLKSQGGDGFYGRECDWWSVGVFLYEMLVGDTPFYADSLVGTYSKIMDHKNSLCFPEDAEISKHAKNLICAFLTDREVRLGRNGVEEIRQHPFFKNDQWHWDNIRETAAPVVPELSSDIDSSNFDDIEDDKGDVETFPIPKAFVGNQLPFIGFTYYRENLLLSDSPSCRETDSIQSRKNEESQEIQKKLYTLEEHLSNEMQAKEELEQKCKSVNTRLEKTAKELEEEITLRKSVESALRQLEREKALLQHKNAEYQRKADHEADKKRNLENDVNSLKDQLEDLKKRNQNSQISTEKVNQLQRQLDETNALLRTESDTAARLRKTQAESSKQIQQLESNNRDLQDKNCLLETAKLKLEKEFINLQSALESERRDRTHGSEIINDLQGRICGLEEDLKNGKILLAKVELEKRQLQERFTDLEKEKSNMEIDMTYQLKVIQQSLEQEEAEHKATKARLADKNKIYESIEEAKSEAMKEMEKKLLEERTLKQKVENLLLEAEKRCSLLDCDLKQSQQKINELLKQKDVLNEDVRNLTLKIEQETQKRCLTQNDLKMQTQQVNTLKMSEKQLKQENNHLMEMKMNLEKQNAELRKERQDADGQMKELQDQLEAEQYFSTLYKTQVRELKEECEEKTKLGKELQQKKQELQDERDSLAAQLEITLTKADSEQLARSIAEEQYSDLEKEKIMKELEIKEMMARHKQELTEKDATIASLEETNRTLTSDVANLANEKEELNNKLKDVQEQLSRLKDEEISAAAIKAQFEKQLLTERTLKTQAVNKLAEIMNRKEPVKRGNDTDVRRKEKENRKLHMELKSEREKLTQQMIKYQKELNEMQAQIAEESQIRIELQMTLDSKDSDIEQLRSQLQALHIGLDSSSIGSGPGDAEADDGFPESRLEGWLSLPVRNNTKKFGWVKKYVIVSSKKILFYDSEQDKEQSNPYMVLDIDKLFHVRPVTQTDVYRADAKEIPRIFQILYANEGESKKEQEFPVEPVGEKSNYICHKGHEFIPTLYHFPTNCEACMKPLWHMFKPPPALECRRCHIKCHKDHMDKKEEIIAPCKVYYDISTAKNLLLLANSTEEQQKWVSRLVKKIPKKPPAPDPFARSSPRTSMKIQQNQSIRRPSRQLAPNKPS

[3] = target: Protein kinase C gamma type (Homo sapiens) (UniProt P05129)
[4] = target: Tyrosine-protein kinase Lck (Homo sapiens) (UniProt P06239)
Tyrosine-protein kinase Lck (Homo sapiens), sequence (P06239 2-509 limits assumed): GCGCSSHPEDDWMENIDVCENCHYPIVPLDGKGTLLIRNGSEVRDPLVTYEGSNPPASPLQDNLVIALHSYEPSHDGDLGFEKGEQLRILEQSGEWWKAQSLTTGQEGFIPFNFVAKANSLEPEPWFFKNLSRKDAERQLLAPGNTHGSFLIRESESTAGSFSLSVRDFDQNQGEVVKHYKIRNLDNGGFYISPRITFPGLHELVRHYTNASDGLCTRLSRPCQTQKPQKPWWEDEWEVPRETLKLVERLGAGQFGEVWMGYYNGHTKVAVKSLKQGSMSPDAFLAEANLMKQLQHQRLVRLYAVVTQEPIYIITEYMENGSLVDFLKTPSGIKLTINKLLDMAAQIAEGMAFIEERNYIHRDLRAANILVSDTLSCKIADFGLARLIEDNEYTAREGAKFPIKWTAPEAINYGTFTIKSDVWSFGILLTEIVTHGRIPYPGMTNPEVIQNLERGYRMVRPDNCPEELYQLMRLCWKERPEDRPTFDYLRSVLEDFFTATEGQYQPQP

[5] = target: Dual specificity tyrosine-phosphorylation-regulated kinase 1A (Homo sapiens) (UniProt Q13627)
[6] = target: Leucine-rich repeat serine/threonine-protein kinase 2 (Homo sapiens) (UniProt Q5S007)
[7] = target: Phosphatidylinositol 4-phosphate 5-kinase type-1 alpha (Homo sapiens) (UniProt Q99755)
[8] = target: Insulin receptor-related protein (Homo sapiens) (UniProt P14616)
[9] = target: Insulin receptor (Homo sapiens) (UniProt P06213)
[10] = target: eIF-2-alpha kinase GCN2 (Homo sapiens) (UniProt Q9P2K8)
eIF-2-alpha kinase GCN2 (Homo sapiens), sequence (Q9P2K8 whole entry): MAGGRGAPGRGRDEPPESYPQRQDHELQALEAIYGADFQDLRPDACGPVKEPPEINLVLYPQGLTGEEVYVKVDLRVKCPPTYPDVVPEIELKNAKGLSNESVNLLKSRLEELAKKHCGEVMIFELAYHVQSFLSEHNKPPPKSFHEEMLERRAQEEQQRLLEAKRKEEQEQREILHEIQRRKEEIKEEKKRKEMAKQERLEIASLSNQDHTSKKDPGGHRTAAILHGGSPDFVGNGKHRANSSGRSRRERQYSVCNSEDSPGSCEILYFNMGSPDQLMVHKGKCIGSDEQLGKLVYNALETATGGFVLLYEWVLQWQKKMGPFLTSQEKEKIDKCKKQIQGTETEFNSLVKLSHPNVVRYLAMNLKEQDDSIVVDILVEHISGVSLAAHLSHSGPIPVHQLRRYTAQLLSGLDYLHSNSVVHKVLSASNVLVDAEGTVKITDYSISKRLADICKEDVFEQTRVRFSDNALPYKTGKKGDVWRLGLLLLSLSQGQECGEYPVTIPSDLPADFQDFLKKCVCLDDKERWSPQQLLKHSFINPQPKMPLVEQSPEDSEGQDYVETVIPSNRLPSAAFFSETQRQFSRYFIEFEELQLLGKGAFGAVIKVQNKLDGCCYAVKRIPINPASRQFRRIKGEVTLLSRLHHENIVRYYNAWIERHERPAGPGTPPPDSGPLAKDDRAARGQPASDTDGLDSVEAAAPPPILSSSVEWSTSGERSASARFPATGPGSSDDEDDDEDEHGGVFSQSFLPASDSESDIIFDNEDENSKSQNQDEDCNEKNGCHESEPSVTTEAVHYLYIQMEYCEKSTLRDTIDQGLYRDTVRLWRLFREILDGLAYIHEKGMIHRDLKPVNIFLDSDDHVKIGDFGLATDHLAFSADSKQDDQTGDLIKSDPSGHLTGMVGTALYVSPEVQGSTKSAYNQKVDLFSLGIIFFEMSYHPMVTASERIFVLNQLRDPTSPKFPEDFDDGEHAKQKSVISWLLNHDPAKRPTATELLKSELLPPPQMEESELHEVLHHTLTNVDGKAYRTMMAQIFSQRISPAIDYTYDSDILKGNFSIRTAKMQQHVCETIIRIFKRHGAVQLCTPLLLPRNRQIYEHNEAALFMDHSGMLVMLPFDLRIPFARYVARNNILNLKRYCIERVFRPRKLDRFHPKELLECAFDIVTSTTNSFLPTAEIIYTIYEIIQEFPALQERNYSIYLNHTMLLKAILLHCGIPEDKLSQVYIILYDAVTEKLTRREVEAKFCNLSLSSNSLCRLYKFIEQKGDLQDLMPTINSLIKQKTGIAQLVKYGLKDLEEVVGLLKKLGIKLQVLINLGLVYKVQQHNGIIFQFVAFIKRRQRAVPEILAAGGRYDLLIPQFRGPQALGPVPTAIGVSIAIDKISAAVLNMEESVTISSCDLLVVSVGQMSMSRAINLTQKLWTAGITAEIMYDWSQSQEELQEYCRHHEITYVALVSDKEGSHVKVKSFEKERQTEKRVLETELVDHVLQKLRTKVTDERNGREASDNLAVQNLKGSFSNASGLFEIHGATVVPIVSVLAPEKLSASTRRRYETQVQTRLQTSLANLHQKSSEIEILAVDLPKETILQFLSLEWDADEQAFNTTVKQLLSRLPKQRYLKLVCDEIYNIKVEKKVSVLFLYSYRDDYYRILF

[11] = target: Serine/threonine-protein kinase PAK 1 (Homo sapiens) (UniProt Q13153)
Serine/threonine-protein kinase PAK 1 (Homo sapiens), sequence (Q13153 whole entry): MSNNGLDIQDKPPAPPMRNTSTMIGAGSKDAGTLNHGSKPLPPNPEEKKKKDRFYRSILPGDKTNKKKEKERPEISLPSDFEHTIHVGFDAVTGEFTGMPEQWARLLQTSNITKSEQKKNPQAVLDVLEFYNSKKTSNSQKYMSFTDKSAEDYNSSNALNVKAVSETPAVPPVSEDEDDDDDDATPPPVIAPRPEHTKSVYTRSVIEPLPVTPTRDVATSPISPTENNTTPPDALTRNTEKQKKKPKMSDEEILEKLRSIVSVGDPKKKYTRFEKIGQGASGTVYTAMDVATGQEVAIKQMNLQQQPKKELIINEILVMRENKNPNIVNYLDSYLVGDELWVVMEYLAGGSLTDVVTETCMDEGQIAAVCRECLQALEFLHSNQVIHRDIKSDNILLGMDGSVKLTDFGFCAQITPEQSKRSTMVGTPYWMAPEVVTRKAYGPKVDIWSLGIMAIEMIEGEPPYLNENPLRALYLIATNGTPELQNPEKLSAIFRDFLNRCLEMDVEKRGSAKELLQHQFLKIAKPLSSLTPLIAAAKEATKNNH

[12] = target: Serine/threonine-protein kinase 32A (Homo sapiens) (UniProt Q8WU08)
[13] = target: Cyclin-dependent kinase 1/cyclin B (Homo sapiens) (UniProt P06493+P14635+Q8WWL7+O95067)
[14] = target: Calcium/calmodulin-dependent protein kinase type 1D (Homo sapiens) (UniProt Q8IU85)
[15] = target: Mitogen-activated protein kinase kinase kinase kinase 1 (Homo sapiens) (UniProt Q92918)
Mitogen-activated protein kinase kinase kinase kinase 1 (Homo sapiens), sequence (Q92918 whole entry, looked up): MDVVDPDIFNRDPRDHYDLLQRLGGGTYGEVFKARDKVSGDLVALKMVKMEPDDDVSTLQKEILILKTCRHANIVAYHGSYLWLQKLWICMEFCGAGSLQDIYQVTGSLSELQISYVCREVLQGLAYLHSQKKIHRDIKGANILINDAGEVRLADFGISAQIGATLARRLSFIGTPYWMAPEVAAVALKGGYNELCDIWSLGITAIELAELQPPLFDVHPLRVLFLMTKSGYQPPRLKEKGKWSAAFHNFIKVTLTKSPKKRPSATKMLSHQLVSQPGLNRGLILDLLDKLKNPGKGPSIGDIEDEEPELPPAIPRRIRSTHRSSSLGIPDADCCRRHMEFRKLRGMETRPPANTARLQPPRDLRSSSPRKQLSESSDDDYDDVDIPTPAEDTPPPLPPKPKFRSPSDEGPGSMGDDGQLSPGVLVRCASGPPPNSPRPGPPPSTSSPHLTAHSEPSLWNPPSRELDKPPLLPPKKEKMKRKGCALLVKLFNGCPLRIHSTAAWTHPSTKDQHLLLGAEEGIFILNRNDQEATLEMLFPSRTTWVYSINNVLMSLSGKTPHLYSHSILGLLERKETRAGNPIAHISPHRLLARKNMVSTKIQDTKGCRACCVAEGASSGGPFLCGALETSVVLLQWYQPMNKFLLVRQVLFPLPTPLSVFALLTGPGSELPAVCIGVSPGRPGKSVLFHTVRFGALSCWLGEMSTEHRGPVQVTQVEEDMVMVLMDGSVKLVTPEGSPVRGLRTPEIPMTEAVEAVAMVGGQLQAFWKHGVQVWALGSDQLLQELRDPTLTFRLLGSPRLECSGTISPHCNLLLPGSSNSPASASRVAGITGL

[16] = target: T2, Mitogen-activated protein kinase 13 (Homo sapiens) (UniProt O15264)
T2 sequence (whole entry): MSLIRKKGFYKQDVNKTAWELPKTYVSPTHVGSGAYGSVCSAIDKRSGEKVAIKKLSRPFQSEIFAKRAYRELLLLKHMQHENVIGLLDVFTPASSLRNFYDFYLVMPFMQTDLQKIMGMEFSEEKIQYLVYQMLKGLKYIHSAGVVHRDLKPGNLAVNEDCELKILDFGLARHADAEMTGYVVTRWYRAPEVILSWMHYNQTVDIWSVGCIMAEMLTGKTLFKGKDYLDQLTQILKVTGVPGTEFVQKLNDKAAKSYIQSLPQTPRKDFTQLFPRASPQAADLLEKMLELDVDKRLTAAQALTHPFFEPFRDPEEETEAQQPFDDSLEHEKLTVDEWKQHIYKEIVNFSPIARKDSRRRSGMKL

[17] = target: Ephrin type-A receptor 4 (Homo sapiens) (UniProt P54764)
[18] = target: Insulin-like growth factor 1 receptor (Homo sapiens) (UniProt P08069)
[19] = target: SRSF protein kinase 1 (Homo sapiens) (UniProt Q96SB4)
[20] = target: T3, Serine/threonine-protein kinase 17A (Homo sapiens) (UniProt Q9UEE5)
T3 sequence (whole entry): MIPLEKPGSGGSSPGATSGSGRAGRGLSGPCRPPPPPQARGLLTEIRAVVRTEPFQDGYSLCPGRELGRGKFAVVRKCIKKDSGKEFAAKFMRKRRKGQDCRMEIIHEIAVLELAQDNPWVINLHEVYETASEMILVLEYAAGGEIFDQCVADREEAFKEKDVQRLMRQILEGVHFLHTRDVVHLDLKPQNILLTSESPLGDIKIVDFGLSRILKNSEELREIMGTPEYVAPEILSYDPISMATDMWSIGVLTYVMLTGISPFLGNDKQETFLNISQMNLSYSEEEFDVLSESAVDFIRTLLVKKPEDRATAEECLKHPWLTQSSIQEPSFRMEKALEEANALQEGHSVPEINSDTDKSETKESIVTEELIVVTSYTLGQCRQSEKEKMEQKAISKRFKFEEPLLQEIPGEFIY

[21] = target: Serine/threonine-protein kinase pim-2 (Homo sapiens) (UniProt Q9P1W9)

Measured: % residual kinase activity

CN1CCN(c2cnc3c(C4CCN(C(=O)c5ccc(OC(F)(F)F)cc5N)CC4)ncnc3c2)CC1 [BAY-885]
inactive: [1] 96% | [2] 91% | [3] 120% | [4] 105% | [5] 112% | [6] 102% | [7] 98% | [8] 111% | [9] 99% | [10] 98% | [11] 95% | [12] 100% | [13] 101% | [14] 94% | [15] 106% | [16] 112% | [17] 82% | [18] 107% | [19] 114% | [20] 85% | [21] 110%
